{"source": "patent US20240050449A1", "about": "“Use of Acetyltanshinone IIA in Preparation of Medicament for Treating Lung Cancer and Medicament for Treating Lung Cancer” (UNIVERSITY OF MACAU, priority 2022, published 2024)", "assay_type_in_all_cases": "cell-based", "key": {"A549 cells [1]": {"system": "A549 cells", "assay": "MTT cell viability assay, A549 cells", "experimental": "(§1) Cells were seeded at a density of 3×10^3 per well in 96-well plates, allowed to attach overnight, and treated with various concentrations of agent. After 72 h of treatment, 10 μL of MTT solution (5 mg/mL) was added to each well and cultured in the plate for 4 h. The crystallized formazan was dissolved in 100 μL of 10% (w/v) SDS and 0.01 mol/L HCl solution for 24 h, and then the value was read by spectrophotometry at 595 nm using a microplate reader."}, "MET": {"system": "MET", "assay": "Western blot, MET protein levels in drug-resistant NSCLC cells", "details": "2 μM", "experimental": "(§2) Cells were washed once with PBS and frozen in RIPA lysis buffer containing protease and phosphatase inhibitors (Sigma-Aldrich) for 30 min. After sonication and centrifugation, the total protein concentration was determined by protein assay using Bio-Rad concentrated dye reagent (Bio-Rad). Equal amounts of protein ([…]) from each sample were separated by SDS-PAGE and electrotransferred to nitrocellulose membranes (GE Healthcare). Detection was performed on the membrane with a 1:1000 dilution of specific primary antibody followed by incubation with a 1:2000 dilution of the HRP conjugated secondary antibody. Finally, immunoreactivity is detected with a chemiluminescent substrate (Clarity Western ECL substrate; Bio-Rad). […] Aurora A (#ab13824) and PLK1 (#ab189139) antibodies were from Abcam."}, "EGFR": {"system": "EGFR", "assay": "Western blot, EGFR protein levels in drug-resistant NSCLC cells", "experimental": "as §2"}, "H358 cells [2]": {"system": "H358 cells", "assay": "Colony formation (cloning experiment), H358 cells", "details": "10 days", "experimental": "Cells were seeded at a density of 1×10^3 per well in 6-well plates and cultured for 24 h. The cells were treated with medicament or DMSO for 10 days, after which the cells were washed once with 1×PBS, fixed with 4% paraformaldehyde for 20 min, and stained with 0.1% crystal violet for 15 min. The stained cells in each well were imaged and the number of colonies in each well was quantified using ImageJ software."}, "H1975 cells": {"system": "H1975 cells", "assay": "Spheroid formation experiment, H1975 cells", "source_text": "The density of H1975 was 500 cells per well and the density of H1650 was 1000 cells per well in an ultra-low adhesion round bottom 96 well plate (Corning, #7007)."}, "A549 cells [3]": {"system": "A549 cells", "assay": "Transwell cell migration assay", "experimental": "Cell migration and invasion assays were performed in a transwell chamber (Corning, #3422) with a pore size of 8 μm. Cells were treated with different concentrations of ATA and Erlotinib for 48 h, then harvested and resuspended in a serum-free medium. Cells (1×10^4) were added to the upper side of the transwell chamber and fresh medium containing 10% FBS was added to the lower side. Cells were allowed to migrate from the upper side to the lower side of the chamber at 37° C. for 24 h. Membranes from the cell chamber were fixed with 4% paraformaldehyde for 20 min. The cells remaining on the upper side of the membrane were gently removed with a cotton swab and stained with 1% crystal violet for 20 min to stain the cells migrating to the other side of the transwell chamber. The membrane was then cut and fixed on a glass slide. The migrated cells on each slide were imaged with a Leica M165-FC microscope. For the transwell invasion assay, a Matrigel solution (Corning, #356230) was diluted to one-thirtieth with serum-free medium and applied to the upper side of the precoated chamber for 2 h, after the Matrigel had solidified, the cells were added to the upper side of the transwell chamber. The following procedure is identical to the migration assay. Migrated and invaded cells were quantified using ImageJ software."}, "A549 and H1650 cells": {"system": "A549 and H1650 cells", "assay": "Cell cycle analysis (PI staining, flow cytometer)", "details": "1 or 2 μM, 48 h", "experimental": "Cell cycle analysis was performed using standard flow cytometer protocols. Briefly, after ATA treatment, cells were harvested, washed with 1×PBS, and then fixed with 70% pre-chilled ethanol at 4° C. for 30 min. Fixed cells were washed twice with 1×PBS, resuspended in 0.5 mL of 1×PBS containing 50 μg/mL propidium iodide (PI) and 100 μg/mL RNase A (ribonuclease A) for 30 min at 37° C. in the dark. The cell cycle was then analyzed on a BD Accuri C6 flow cytometer (BD Biosciences, CA). Data from the flow cytometer were analyzed using FlowJo software (Tree Star)."}, "[4]": {"system": "drug-resistant NSCLC cells (A549, H358, H1975, H1650)", "assay": "MTT assay, summary over all four cell lines", "experimental": "as §1"}, "H358 cells [5]": {"system": "H358 cells", "assay": "MTT cell viability assay, H358 cells", "experimental": "as §1"}}, "note": "“Also recorded” adds a separate entry of the source."}
{"smiles": "CC(=O)Oc1c(OC(C)=O)c2c(C)coc2c2ccc3c(c12)CCCC3(C)C", "note": "[ATA, acetyltanshinone IIA]", "values": [{"measurement": "IC50 ratio of Erlotinib/ATA", "setting": "A549 cells [1]", "value": 10.7}, {"measurement": "growth inhibition compared with other agents", "setting": "A549 cells [1]; ATA 2 μM, 72 h, MTT", "value": "significantly higher than all three inhibitors; also recorded: greater growth inhibition than combination therapy with Erlotinib and MLN8237"}, {"measurement": "IC50", "setting": "A549 cells [1]; MTT, 72 h", "value": "1830 ± 210", "unit": "nM"}, {"measurement": "decrease of MET protein levels", "setting": "MET; A549 cells, 72 or 96 h", "value": "≤ 90", "unit": "%"}, {"measurement": "reduction of MET protein levels", "setting": "MET; all four cell lines, 48 h", "value": "70-90%"}, {"measurement": "decrease of EGFR protein levels", "setting": "EGFR; A549 cells, 2 μM, 72 or 96 h", "value": "≤ 90", "unit": "%"}, {"measurement": "reduction of EGFR protein levels", "setting": "EGFR; H358, H1975 and H1650 cells, 1 or 2 μM, 48 h", "value": "60-70%"}, {"measurement": "inhibition of colony formation", "setting": "H358 cells [2]; 0.125 μM", "value": "almost completely inhibited"}, {"measurement": "colony formation inhibition compared with Afatinib", "setting": "H358 cells [2]; 1 μM", "value": "significantly higher colony formation inhibition than Afatinib"}, {"measurement": "spheroid growth / sphere size", "setting": "H1975 cells; 2 μM, 0 to 8 days", "value": "completely inhibited"}, {"measurement": "spheroid formation", "setting": "H1975 cells; both 1 and 2 μM", "value": "strongly inhibited"}, {"measurement": "effect on cell migration", "setting": "A549 cells [3]; 0.5 μM", "value": "significant inhibitory effect"}, {"measurement": "reduction of migration ability", "setting": "A549 cells [3]; 1 μM", "value": 80, "unit": "%"}, {"measurement": "proportion of cells in the G1 phase", "setting": "A549 and H1650 cells", "value": "increased"}, {"measurement": "proportion of cells in the S phase", "setting": "A549 and H1650 cells", "value": "decreased"}, {"measurement": "IC50", "setting": "[4]; A549, H358, H1975, H1650, MTT, 72 h, read-out: IC50 values, range over the four cell lines", "value": "1300 to 1800", "unit": "nM"}, {"measurement": "IC50 of ATA lower than that of Erlotinib", "setting": "[4]; four cell lines", "value": "6-17 fold"}, {"measurement": "IC50 ratio of Erlotinib/ATA", "setting": "H358 cells [5]", "value": 13.7}, {"measurement": "IC50", "setting": "H358 cells [5]; MTT, 72 h", "value": "1570 ± 100", "unit": "nM"}]}
